The results in this text go back to patent publication US20040005327A1, “Immune T-cell stimulation” (priority 2002, published 2004).

Several values for one entry are separate records, joined by “and”; a condition that tells them apart may be missing. Identical values can stand only once.

In this assay the test system is T-lymphocytes. Description: Blastogenesis of T-cells, 3H-thymidine incorporation. It counts as cell-based. The following applies: for 3H-thymidine incorporation/well / Stimulation Index: PHA 5 μg/ml. The protocol: Dilutions of PHA were prepared from 1:100 to 1:1000 and the dilutions were added to mycro-plate system lymphocyte cultures. Phytohemaglutinin, Pockeweed antigen and A Concanavalin were added to identified wells. After the culture period, T-lymphocytes proliferation was determined by radioactive tymidine uptake assay.
The present study compared the mitogenic effect of hyperimmune whole egg and a partially purified fraction of the hyperimmune egg (less then 3K fraction described in Example 2) against control medium alone. The hyperimmune whole egg was tested at varying concentrations that include 0.24, 0.98, 3.9, 15.6, 62.5 and 250 μg/ml. The purified less than 3K fraction from the hyperimmune egg was tested at 0.1, 0.2, 0.7, 2.0, 6.1, 18.4, 55.3 and 166.0 μg/ml concentrations. The Stimulating Index for hyperimmune whole egg, in accordance with the above concentrations, was 0.9, 0.8, 0.9, 0.9, 0.8, and 0.8 respectively, which corresponds, in the test conditions, to a cell population increase of 90, 80, 90, 90, 80 and 80% respectively. The Stimulating Index for the 3K purified fraction, in accordance with the above concentrations, was 1.1, 1.2, 1.5, 1.7, 1.4, 1.3, 1.0 and 1.2 respectively (see Table 2), which corresponds, in the test conditions, to a cell population increasing of 110, 120, 150, 170, 140, 130, 100 and 120% respectively.
On the technique in general: Uptake of a labelled nucleoside into DNA is a usual measure of proliferation.

The mark [1] stands for this setting: single wells No. 1-6, first study.
Where [2] appears, read: single wells No. 1-6, repeated study.

On to Phytohemaglutinin [PHA], for which the 3H-thymidine incorporation/well (AVE of 6 wells, first study) stood at 108028 cpm; the 3H-thymidine incorporation/well (AVE of 6 wells, repeated study) is 109901 cpm; the 3H-thymidine incorporation/well under setting [1] was 98898 cpm and 121212 cpm and 97149 cpm and 118218 cpm and 101241 cpm and 111452 cpm; the 3H-thymidine incorporation/well under setting [2] is 110201 cpm and 121811 cpm and 97453 cpm and 112934 cpm and 102484 cpm and 114522 cpm. For the same substance, the “Stimulation Index” value (AVE of 6 wells, first study) came to 195.8; the “Stimulation Index” value (AVE of 6 wells, repeated study) is 292.2; the “Stimulation Index” value under setting [1] is 179.2 and 219.7 and 176.0 and 214.2 and 183.5 and 202.0; the “Stimulation Index” value under setting [2] is 293.0 and 323.8 and 259.1 and 300.2 and 272.4 and 304.4. Further, the T-lymphocytes proliferation result (PHA dilutions 1:100 to 1:1000, radioactive tymidine uptake) is given as “increased the proliferation of free mitogen lymphocytes intensively”.
